We go through 3 compounds from US9458113B2 (Boehringer Ingelheim International GmbH, priority 2014, dated 2016).

The nature of series [1]: Metabolic stability with human liver microsomes. The series is classed as in vitro ADME. Conditions: pH 7.6; pooled human liver microsomes, 1 μM test compound, 37° C.; read-out: t1/2 INVITRO. (In general: Liver microsomes are a subcellular fraction often used to study metabolism.)
A short description of series [2]: Aqueous solubility (Shaked Flask Method). The following applies: aqueous buffer, thermodynamic from solid, pH 6.8. It is filed as physicochemical. How it is done:
Assay for Determination of Aqueous Solubility (“Shaked Flask Method”)
Saturated solutions are prepared in well plates by adding an appropriate volume of selected aqueous media (typically in the range of 0.25-1.5 ml) into each well which contains a known quantity of solid drug substance (typically in the range 0.5-5.0 mg). The wells are shaken or stirred for a predefined time period (typically in a range of 2-24 h) and then filtered using appropriate filter membranes (typically PTFE-filters with 0.45 μm pore size). Filter absorption is avoided by discarding the first few drops of filtrate. The amount of dissolved drug substance is determined by UV spectroscopy or by HPLC with UV-detection. In addition, the pH of the aqueous saturated solution is measured using a glass-electrode pH meter.

The target in series [3] is Human neutrophil elastase (Homo sapiens (Human), UniProt P08246). As to the kind of experiment: Human Neutrophil Elastase Assay. It is filed as biochemical. The following applies: substrate MeOSuc-Ala-Ala-Pro-Val-AMC 250 μM, pH 7.5.
Protocol: The following buffers were used: Compound buffer: 100 mM Tris, 500 mM NaCl, adjusted to pH 7.5; Assay buffer: 100 mM Tris, 500 mM NaCl, adjusted to pH 7.5, containing 0.01% BSA.
Assay conditions: Test compounds were prediluted in DMSO and subsequently in compound buffer (5% DMSO final). […] After inactivation of the enzyme, fluorescence intensities were measured at 380 nm excitation and 460 nm emission wavelengths.
Each plate contains wells with a high value control (DMSO+enzyme+substrate) and wells with a low value control (DMSO+inactivated enzyme+substrate). IC50 values were estimated using a sigmoidal concentration response curve with variable slope. Means of low values were taken as 0%, means of high values as 100%.
In another series the target is cytochrome P450 2C19 (Homo sapiens (Human), UniProt P33261). Description: Cytochrome P450 2C19 inhibition. The series is classed as in vitro ADME. Conditions: human liver microsomes, (S)-Mephenytoin hydroxylation; read-out: IC50 (CYP 2C19). An excerpt:
Assay for Determination of Cytochrome P450 2C19 Inhibition
(I=inhibitor concentration, S=slope factor, B=background activity)

Series [4] concerns the target hERG (human ether-a-go-go-related gene) potassium channel (Homo sapiens (Human), UniProt Q12809). Description: hERG inhibition patch clamp assay. It is filed as cell-based. A general note: hERG is a cardiac potassium channel; its block is linked to QT prolongation.
The target in a further series is hERG potassium channel (Homo sapiens (Human), UniProt Q12809). As to the kind of experiment: hERG inhibition patch clamp assay. Conditions: human, @ 10 μM. It is filed as cell-based.

Structures are written as SMILES. Some results are limits rather than exact numbers.

Chain of Human neutrophil elastase (P08246 30-247): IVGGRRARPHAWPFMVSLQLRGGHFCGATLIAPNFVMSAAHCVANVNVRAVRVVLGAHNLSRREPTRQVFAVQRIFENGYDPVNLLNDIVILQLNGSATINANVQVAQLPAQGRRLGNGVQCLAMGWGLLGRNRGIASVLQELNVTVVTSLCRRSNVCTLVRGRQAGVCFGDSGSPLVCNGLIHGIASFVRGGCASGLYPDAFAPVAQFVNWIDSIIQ
Chain of hERG (human ether-a-go-go-related gene) potassium channel (Q12809 whole entry): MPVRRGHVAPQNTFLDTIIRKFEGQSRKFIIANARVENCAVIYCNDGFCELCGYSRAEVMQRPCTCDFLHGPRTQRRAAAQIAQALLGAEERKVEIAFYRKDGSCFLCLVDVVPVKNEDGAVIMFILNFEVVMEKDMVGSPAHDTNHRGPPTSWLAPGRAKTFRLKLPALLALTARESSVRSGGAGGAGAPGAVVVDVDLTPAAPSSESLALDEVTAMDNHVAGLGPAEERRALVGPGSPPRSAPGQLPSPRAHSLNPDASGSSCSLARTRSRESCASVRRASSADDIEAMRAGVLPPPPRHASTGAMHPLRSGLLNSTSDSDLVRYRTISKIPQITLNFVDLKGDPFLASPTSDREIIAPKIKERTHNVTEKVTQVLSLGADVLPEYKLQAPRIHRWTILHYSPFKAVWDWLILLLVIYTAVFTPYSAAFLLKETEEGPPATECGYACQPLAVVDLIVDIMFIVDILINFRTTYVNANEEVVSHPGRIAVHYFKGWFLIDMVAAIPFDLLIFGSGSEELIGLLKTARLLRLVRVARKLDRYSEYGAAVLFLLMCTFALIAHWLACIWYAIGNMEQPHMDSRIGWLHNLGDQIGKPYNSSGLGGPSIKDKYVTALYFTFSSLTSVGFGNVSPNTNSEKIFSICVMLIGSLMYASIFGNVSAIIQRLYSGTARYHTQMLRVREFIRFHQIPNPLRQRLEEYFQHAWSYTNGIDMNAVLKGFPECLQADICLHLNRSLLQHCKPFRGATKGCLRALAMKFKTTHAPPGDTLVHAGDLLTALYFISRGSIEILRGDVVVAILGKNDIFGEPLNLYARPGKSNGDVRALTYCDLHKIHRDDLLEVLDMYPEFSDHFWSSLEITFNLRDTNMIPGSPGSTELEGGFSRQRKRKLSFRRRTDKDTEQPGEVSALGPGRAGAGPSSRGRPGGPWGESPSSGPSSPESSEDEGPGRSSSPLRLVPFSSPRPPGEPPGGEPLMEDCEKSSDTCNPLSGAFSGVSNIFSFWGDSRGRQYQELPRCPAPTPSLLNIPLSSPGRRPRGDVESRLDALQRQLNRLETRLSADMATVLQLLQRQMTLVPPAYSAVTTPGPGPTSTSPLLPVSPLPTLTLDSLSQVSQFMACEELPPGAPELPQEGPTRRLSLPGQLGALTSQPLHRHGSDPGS
Chain of hERG potassium channel (Q12809 whole entry): as above
Chain of cytochrome P450 2C19 (P33261 whole entry): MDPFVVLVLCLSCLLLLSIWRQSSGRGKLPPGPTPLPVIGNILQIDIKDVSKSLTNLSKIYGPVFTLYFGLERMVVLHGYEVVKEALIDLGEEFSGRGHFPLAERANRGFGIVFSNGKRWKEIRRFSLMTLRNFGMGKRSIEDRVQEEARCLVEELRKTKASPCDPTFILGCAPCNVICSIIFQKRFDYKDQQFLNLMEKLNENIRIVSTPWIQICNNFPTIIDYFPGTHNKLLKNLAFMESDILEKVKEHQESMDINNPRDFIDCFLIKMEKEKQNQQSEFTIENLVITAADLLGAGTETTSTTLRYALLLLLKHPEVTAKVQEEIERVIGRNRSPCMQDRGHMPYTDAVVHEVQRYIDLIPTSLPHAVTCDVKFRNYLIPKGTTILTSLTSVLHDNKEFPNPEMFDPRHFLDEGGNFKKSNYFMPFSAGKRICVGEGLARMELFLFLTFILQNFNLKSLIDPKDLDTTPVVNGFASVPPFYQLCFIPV

For orientation: solubility means how much of the substance goes into solution per volume. A high value points to a readily soluble substance. The IC50 is the midpoint of a concentration-inhibition curve. In general, inhibition refers to the share of the control response that was lost under treatment. The low end stands for a weak effect, the high end for a strong effect. Turning to `CN1C(=O)N(c2cccc(C(F)(F)F)c2)C2=C(C(=O)CC2)[C@H]1c1ccc(C#N)cc1C(N)=O` [Example 2, 5-Cyano-2-[(R)-3-methyl-2,5-dioxo-1-(3-trifluoromethyl-phenyl)-2,3,4,5,6,7-hexahydro-1H-cyclopentapyrimidin-4-yl]-benzamide], in series [1], the half-life at 1 μM was greater than 2.17 h. Moreover, the solubility in series [2] was greater than 10 µg/mL. Also, the IC50 is 0.0024 µM in series [3], greater than 50 µM on cytochrome P450 2C19 and greater than 30 µM in series [4]. On hERG potassium channel, this compound returned an inhibition at 10 µM of 4%.
With `CN1C(=O)N(c2cccc(C(F)(F)F)c2)C2=C(C(=O)CC2)[C@H]1c1ccc(C#N)cc1CNC(C)(C)C` [Example 24, 3-(tert-Butylamino-methyl)-4-[(R)-3-methyl-2,5-dioxo-1-(3-trifluoromethyl-phenyl)-2,3,4,5,6,7-hexahydro-1H-cyclopentapyrimidin-4-yl]-benzonitrile], the half-life at 1 μM in series [1] is greater than 2.17 h. Moreover, the solubility in series [2] was greater than 10 µg/mL. The IC50 was 0.0019 µM in series [3], greater than 50 µM at cytochrome P450 2C19 and greater than 30 µM in series [4]. In addition, at hERG potassium channel, testing at 10 µM gave an inhibition of 7%.
`CN1C(=O)N(c2cccc(C(F)(F)F)c2)C2=C(C(=O)CC2)[C@H]1c1ccc(C#N)cc1-c1ccc(=O)n(C)c1` [Example 23, 4-[(R)-3-Methyl-2,5-dioxo-1-(3-trifluoromethyl-phenyl)-2,3,4,5,6,7-hexahydro-1H-cyclopentapyrimidin-4-yl]-3-(1-methyl-6-oxo-1,6-dihydro-pyridin-3-yl)-benzonitrile]: in series [1], the half-life at 1 μM was greater than 2.17 h. Besides, in series [2], the solubility is greater than 10 µg/mL. For the same compound, the IC50 in series [3] is less than 0.001 µM; on cytochrome P450 2C19 it was greater than 50 µM; in series [4], greater than 30 µM. For the same compound, 10 µM produced 5% inhibition on hERG potassium channel.
